Measured values reported in US8362000B2, “Azetidinyl diamides as monoacylglycerol lipase inhibitors” (Janssen Pharmaceutica NV, priority 2009, dated 2013).
Substitutions are numbered along the chain they refer to. pIC50, pKd: −log10 of the molar value. Like-named read-outs stand apart in the source and are kept apart here.

Assays:
mutant MGL = biological target: T1, mutant MGL (Homo sapiens, UniProt Q99685, L169S/L176S); test: MGL ThermoFluor assay - mutant; format: binding; settings: for Kd: read-out: MGL mutant ThermoFluor qKd (μM) (using qNMR conc.)
T1 sequence (Q99685 1-303 L169S/L176S): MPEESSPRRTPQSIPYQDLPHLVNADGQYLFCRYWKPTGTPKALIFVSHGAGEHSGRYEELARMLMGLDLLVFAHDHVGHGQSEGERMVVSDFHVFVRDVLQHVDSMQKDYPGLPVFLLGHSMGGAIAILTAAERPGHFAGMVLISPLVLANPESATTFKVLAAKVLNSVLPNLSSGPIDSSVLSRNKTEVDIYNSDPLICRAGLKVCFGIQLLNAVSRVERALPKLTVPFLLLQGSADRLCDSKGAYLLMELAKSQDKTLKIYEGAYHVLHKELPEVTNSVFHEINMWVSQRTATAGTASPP

[1] = biological target: T2, purified wild type MGL (wt-MGLL 6H-11-313) (Homo sapiens, UniProt Q99685)
T2 sequence (Q99685 1-303): T1 sequence (Q99685 1-303 L169S/L176S) with S169L, S176L

[2] = compound concentration measured by qNMR, read-out: MGL mutant ThermoFluor qKd (using qNMR conc.)
[3] = ThermoFluor thermal stability binding assay, read-out: MGL mutant ThermoFluor Kd
[4] = ThermoFluor, compound concentration measured by qNMR, read-out: MGL mutant ThermoFluor qKd (using qNMR conc.)
[5] = ThermoFluor concentration-response, read-out: MGL mutant ThermoFluor Kd
[6] = ThermoFluor, compound concentration measured by qNMR

SMILES | pIC50 [1] | pKd (mutant MGL; [5]) | other results
Cc1nc2cc(C(=O)N3CC(N4CCN(C(=O)c5nccs5)CC4)C3)ccc2n1CC(F)(F)F [Cpd 789] | 5.86 |  | pKd (mutant MGL; [2]): 7.37
O=C(c1ccccc1)N1CCN(C2CN(C(=O)c3cc4ccn(-c5ccc(F)cc5)c4cc3F)C2)CC1 [Cpd 631] | 7.40 |  | pKd (mutant MGL; [2]): 7.28
O=C(c1ccc(-n2nccc2-c2ccc(F)cc2)cc1)N1CC(N2CCN(C(=O)c3nccs3)CC2)C1 [Cpd 1412] | 7.06 |  | pKd (mutant MGL; [3]): 6.62
O=C(c1ccc(-c2ccccc2)cc1)N1CC(N2CCN(C(=O)c3c[nH]nn3)CC2)C1 [Cpd 1269] | 5.90 |  | pKd (mutant MGL; [3]): 5.93
Cc1c(C(=O)N2CC(N3CCN(C(=O)c4ccccc4)CC3)C2)oc2ccc(F)cc12 [Cpd 1490] | < 4.78 |  | pKd (mutant MGL; [3]): < 4.51
O=C(c1cc2ccc(Br)cc2[nH]1)N1CC(N2CCN(C(=O)c3nccs3)CC2)C1 [Cpd 792] | 5.84 |  | pKd (mutant MGL; [4]): 6.01
Cc1c(C(=O)N2CC(N3CCN(C(=O)c4cscn4)CC3)C2)sc2cc(F)ccc12 [Cpd 742] | 6.51 |  | pKd (mutant MGL; [3]): 7.70
O=C(c1ccccc1)N1CCN(C2CN(C(=O)c3cccc4[nH]c(-c5ccc(Cl)cc5)nc34)C2)CC1 [Cpd 607] | 5.54 |  | pKd (mutant MGL; [3]): 6.00
O=C(c1ccc(-c2ccccc2)cc1)N1CCN(C2CN(C(=O)c3cscn3)C2)CC1 [Cpd 1246, 1-(Biphenyl-4-ylcarbonyl)-4-[1-(1,3-thiazol-4-ylcarbonyl)azetidin-3-yl]piperazine] | 6.30 | 7.38 | 
O=C(c1ccccc1)N1CCN(C2CN(C(=O)c3ccc4nc(-c5ccccc5)sc4c3)C2)CC1 [Cpd 592, 2-Phenyl-6-({3-[4-(phenylcarbonyl)piperazin-1-yl]azetidin-1-yl}carbonyl)-1,3-benzothiazole] | 6.60 | 6.30 | 
O=C(c1ccc(Oc2ccc(Br)cn2)cc1)N1CC(N2CCN(C(=O)C(F)(F)F)CC2)C1 [Cpd 872] | 4.86 |  | pKd (mutant MGL; [2]): 5.00
Cc1nc2cc(C(=O)N3CC(N4CCN(C(=O)c5cscn5)CC4)C3)ccc2n1CCC(F)(F)F [Cpd 866] | 4.99 |  | pKd (mutant MGL; [2]): 6.08
O=C(c1ccc(Oc2ccc(Br)cn2)cc1)N1CC(N2CCN(C(=O)c3cscn3)CC2)C1 [Cpd 765] | 6.18 | 5.51 | 
O=C(c1cscn1)N1CCN(C2CN(C(=O)c3cc4ccc(C(F)(F)F)nc4[nH]3)C2)CC1 [Cpd 865] | 4.99 |  | pKd (mutant MGL; [4]): 5.60
O=C(c1ccc(-n2cnc3ccccc32)cc1)N1CC(N2CCN(C(=O)c3nccs3)CC2)C1 [Cpd 1223] | 6.57 | 6.95 | 
O=C(c1ccc(-c2nc(-c3cccc(C(F)(F)F)c3)cs2)cc1)N1CC(N2CCN(C(=O)c3nccs3)CC2)C1 [Cpd 1332] | > 8.30 |  | pKd (mutant MGL; [4]): 8.10
O=C(c1ccc(-n2ccc(C(F)(F)F)n2)cc1)N1CC(N2CCN(C(=O)c3nccs3)CC2)C1 [Cpd 1249] | 6.22 | 6.62 | 
O=C(c1nccs1)N1CCN(C2CN(C(=O)c3cn(Cc4ccccc4)c4ccccc34)C2)CC1 [Cpd 993] | 5.82 | 6.48 | 
O=C(c1ccc2[nH]c(-c3ccccc3)nc2c1)N1CCN(C2CN(C(=O)c3nccs3)C2)CC1 [Cpd 1271] | 5.80 | 6.00 | 
O=C(c1cc2cc(Cl)ccc2o1)N1CCN(C2CN(C(=O)c3nccs3)C2)CC1 [Cpd 785] | 5.92 | 6.30 | 
O=C(c1ccc2nc(-c3cccc(C(F)(F)F)c3)oc2c1)N1CC(N2CCN(C(=O)c3nccs3)CC2)C1 [Cpd 1158, 6-({3-[4-(1,3-Thiazol-2-ylcarbonyl)piperazin-1-yl]azetidin-1-yl}carbonyl)-2-[3-(trifluoromethyl)phenyl]-1,3-benzoxazole] | 7.38 | 8.10 | 
O=C(c1cscn1)N1CCN(C2CN(C(=O)c3cc(-c4ccccc4)ccc3Cl)C2)CC1 [Cpd 1288] | 5.60 | 5.67 | 

SMILES | pIC50 [1] | pKd (mutant MGL; [5]) | other results
CC(C)n1c(C(F)(F)F)nc2cc(C(=O)N3CC(N4CCN(C(=O)c5nccs5)CC4)C3)ccc21 [Cpd 740] | 6.53 | 7.46 | 
O=C(c1ccccc1)N1CCN(C2CN(C(=O)c3ccc(CS(=O)(=O)c4cccc(C(F)(F)F)c4)cc3)C2)CC1 [Cpd 564] | 5.27 | 5.00 | 
Cc1nc2cc(C(=O)N3CC(N4CCN(C(=O)c5cscn5)CC4)C3)ccc2n1CC(F)(F)F [Cpd 858] | 5.06 |  | pKd (mutant MGL; [2]): 6.25
Cc1c(Cc2ccc(C(F)(F)F)cc2)cccc1C(=O)N1CC(N2CCN(C(=O)c3ccns3)CC2)C1 [Cpd 1014] | 6.59 | 6.04 | 
O=C(c1ccc2c(c1)[nH]c(=O)n2-c1ccc(F)c(F)c1)N1CC(N2CCN(C(=O)c3nccs3)CC2)C1 [Cpd 935] | 7.00 | 7.47 | 
O=C(c1ccc(-n2cc(-c3cc(F)cc(F)c3)cn2)cc1)N1CC(N2CCN(C(=O)c3nccs3)CC2)C1 [Cpd 1123] | 7.72 |  | pKd (mutant MGL; [4]): 5.87
Cc1ccnc(-n2ccc3cc(C(=O)N4CC(N5CCN(C(=O)c6cscn6)CC5)C4)ccc32)c1 [Cpd 1197, 1-(4-Methylpyridin-2-yl)-5-({3-[4-(1,3-thiazol-4-ylcarbonyl)piperazin-1-yl]azetidin-1-yl}carbonyl)-1H-indole] | 6.88 |  | pKd (mutant MGL; [4]): 7.19
CC(c1ccccc1)n1cc2cc(C(=O)N3CC(N4CCN(C(=O)c5nccs5)CC4)C3)ccc2n1 (centres unmarked) [Cpd 1040, 2-(1-Phenylethyl)-5-({3-[4-(1,3-thiazol-2-ylcarbonyl)piperazin-1-yl]azetidin-1-yl}carbonyl)-2H-indazole] | 7.60 |  | pKd (mutant MGL; [2]): 7.85
CC(=O)N1CC[C@@H](c2ccccc2C(=O)N2CC(N3CCN(C(=O)c4ccccc4)CC3)C2)C1 [Cpd 1486] | < 4.78 |  | pKd (mutant MGL; [3]): < 4.51
Cc1nn(-c2cccc(C(F)(F)F)c2)c2sc(C(=O)N3CC(N4CCN(C(=O)c5nccs5)CC4)C3)cc12 [Cpd 1146] | 7.49 |  | pKd (mutant MGL; [4]): 7.10
Cc1cn(-c2ccc(F)cc2)c2ccc(C(=O)N3CCN(C4CN(C(=O)c5cscn5)C4)CC3)cc12 [Cpd 1230, 1-(4-Fluorophenyl)-3-methyl-5-({4-[1-(1,3-thiazol-4-ylcarbonyl)azetidin-3-yl]piperazin-1-yl}carbonyl)-1H-indole] | 6.51 | 8.05 | 
O=C(c1cn2cc(Br)ccc2n1)N1CC(N2CCN(C(=O)c3nccs3)CC2)C1 [Cpd 873] | 4.83 |  | pKd (mutant MGL; [4]): 5.04
Cc1nc(-c2ccncc2)sc1C(=O)N1CC(N2CCN(C(=O)c3nccs3)CC2)C1 [Cpd 1272] | 5.79 |  | pKd (mutant MGL; [4]): 6.40
O=C(c1ccccc1)N1CCN(C2CN(C(=O)c3cccc4[nH]c(-c5ccccc5Cl)nc34)C2)CC1 [Cpd 608] | 5.38 |  | pKd (mutant MGL; [3]): 5.78
Cc1nc2cc(C(=O)N3CC(N4CCN(C(=O)c5nccs5)CC4)C3)ccc2n1-c1ccccc1 [Cpd 1229] | 6.51 |  | pKd (mutant MGL; [2]): 7.96
CC1(C)Cc2cc(C(=O)N3CC(N4CCN(C(=O)c5nccs5)CC4)C3)ccc2O1 [Cpd 766] | 6.17 |  | pKd (mutant MGL; [4]): 6.42
O=C(c1ccccc1)N1CCN(C2CN(C(=O)c3ccc(Oc4cccc(C(F)(F)F)c4)nc3)C2)CC1 [Cpd 514] | 6.34 | 6.14 | 
Cc1c(C(=O)N2CC(N3CCN(C(=O)c4nccs4)CC3)C2)[nH]c2ccc(F)cc12 [Cpd 719] | 6.81 |  | pKd (mutant MGL; [4]): 6.92
O=C(c1ccc(-c2cccc(C(F)(F)F)c2)cc1)N1CC(N2CCN(C(=O)C3CC3(F)F)CC2)C1 (centres unmarked) [Cpd 1112] | 7.80 |  | Kd (mutant MGL; [6]): 0.046 µM
O=C(c1ccc(Oc2cc(C(F)(F)F)ccn2)cc1)N1CC(N2CCN(C(=O)c3cscn3)CC2)C1 [Cpd 769] | 6.14 | 5.70 | 
O=C(c1ccc(-c2cccc(C(F)(F)F)c2)cc1)N1CC(N2CCN(C(=O)c3ncco3)CC2)C1 [Cpd 1085] | 8.05 |  | Kd (mutant MGL; [6]): 0.008 µM
